Assay results taken from ChEMBL document CHEMBL6153072, “Metabolically Stable Adenylation Inhibitors of Biotin Protein Ligase as Antibacterial Agents” (J Med Chem, 2025).
≈ marks a conversion by molar mass, not a printed value.

Columns and labels:
Format in all cases: functional
[1] = system: Mycobacterium tuberculosis; test: Antimicrobial activity against Mycobacterium tuberculosis H37Rv harboring medium under-expression of BPL by broth microdilution assay
[2] = system: Mycobacterium tuberculosis; test: Antimicrobial activity against Mycobacterium tuberculosis H37Rv harboring high over-expression of BPL by broth microdilution assay
[3] = system: Mycobacterium tuberculosis; test: Antimicrobial activity against Mycobacterium tuberculosis H37Rv harboring medium over-expression of BPL by broth microdilution assay
[4] = system: Mycobacterium tuberculosis; test: Antimicrobial activity against Mycobacterium tuberculosis H37Rv harboring ultra-under-expression of BPL by broth microdilution assay

SMILES | MIC50 [1] | MIC50 [2] | MIC50 [3] | MIC50 [4]
Nc1ncnc2c1ncn2[C@@H]1O[C@H](CNS(=O)(=O)[N-]C(=O)CCCC[C@@H]2SC[C@@H]3NC(=O)N[C@@H]32)[C@@H](O)[C@H]1O.[Na+] | 0.14 µM | 16 µM | 11 µM | 0.047 µM
Nc1cccc2c1ncn2CCCCNS(=O)(=O)NC(=O)CCCC[C@@H]1SC[C@@H]2NC(=O)N[C@@H]21 | 18 µM (≈ 9.17 µg/mL) |  |  | 16 µM (≈ 8.15 µg/mL)
Nc1ncnc2c1ncn2[C@@H]1O[C@H](CNS(=O)(=O)[N-]C(=O)NCCC[C@@H]2SC[C@@H]3NC(=O)N[C@@H]32)[C@@H](O)[C@H]1O.[Na+] | 0.89 µM | > 100 µM | > 100 µM | 0.28 µM
CC(CCC[C@@H]1SC[C@@H]2NC(=O)N[C@@H]21)C(=O)[N-]S(=O)(=O)NC[C@H]1O[C@@H](n2cnc3c(N)ncnc32)[C@H](O)[C@@H]1O.[Na+] (some centres undefined) | 3.7 µM | > 100 µM | > 100 µM | 0.79 µM
